How the values were obtained:
[1] = biological target: T1, recombinant BACE1 protein (Homo sapiens, UniProt P56817); test: Biochemical FRET based assay; conditions: recombinant BACE1 1 μg/ml, 120 min, room temperature, pH 5.0; for IC50: read-out: Biochemical FRET based assay pIC50 (converted)
T1 construct: recombinant BACE1 protein in a final concentration of 1 μg/ml
Excerpt: Biochemical FRET Based Assay This assay is a Fluorescence Resonance Energy Transfer Assay (FRET) based assay. The substrate for this assay is an APP derived 13 amino acids peptide that contains the 'Swedish' […] mutation of the amyloid precursor protein (APP) β-secretase cleavage site. […] Upon cleavage by BACE1, the fluorophore Mca is separated from the quenching group Dnp, restoring the full fluorescence yield of the donor. The increase in fluorescence is linearly related to the rate of proteolysis (Koike H et al. J Biochem. 1999, 126, 235-42). Briefly in a 384-well format recombinant BACE1 protein in a final concentration of 1 μg/ml is incubated for 120 minutes at room temperature with 10 μm substrate in incubation buffer (40 mM Citrate buffer pH 5.0, 0.04% PEG, 4% DMSO) in the absence or presence of compound. Next the amount of proteolysis is directly measured by fluorescence measurement at T=0 and T=120 (excitation at 320 nm and emission at 405 nm). […] [formula]

brain levels of total Aβ = test: In vivo efficacy: brain Aβtotal lowering (ELISA); set-up: species or system mouse; conditions: 30 mpk, sc
Excerpt: (§1) To determine whether acute administration of an Aβ42 peptide lowering agent would reduce Aβ peptide levels in vivo, non-transgenic rodents, e.g. mice or rats were used. Animals treated with the Aβ peptide lowering agent were examined and compared to those untreated or treated with vehicle and brain levels of soluble Aβ42 and total Aβ were quantitated by standard techniques, for example, using ELISA. Treatment periods varied from hours (h) to days and were adjusted based on the results of the Aβ42 lowering once a time course of onset of effect could be established.
(§2) A typical protocol for measuring Aβ42 lowering in vivo is shown but it is only one of many variations that could be used to optimize the levels of detectable Aβ. For example, Aβ peptide lowering compounds were formulated in 20% hydroxypropyl β cyclodextrin. The Aβ peptide lowering agents were administered as a single oral dose (p.o.) or a single subcutaneous dose (s.c.) to overnight fasted animals. After a certain time, usually 2 or 4 h (as indicated in Table 19), the animals were sacrificed and Aβ42 levels were analysed.
(§3) Blood was collected by decapitation and exsanguinations in EDTA-treated collection tubes. […] The left hemisphere was stored at −18° C. for quantitative analysis of test compound levels. […]
(§4) Mouse brains from non-transgenic animals were resuspended in 8 volumes of 0.4% DEA (diethylamine)/50 mM NaCl containing protease inhibitors (Roche-11873580001 or 04693159001) per gram of tissue, e.g. for 0.158 g brain, add 1.264 ml of 0.4% DEA. […] Nine parts of supernatant were neutralized with 1 part 0.5 M Tris-HCl pH 6.8 and used to quantify Aβtotal and Aβ42.
To quantify the amount of Aβtotal and Aβ42 in the soluble fraction of the brain homogenates, Enzyme-Linked-Immunosorbent-Assays were used. […] Following this incubation and subsequent wash steps the ELISA for Aβ42 quantification was finished by addition of Quanta Blu fluorogenic peroxidase substrate according to the manufacturer's instructions (Pierce Corp., Rockford, Ill.). A reading was performed after 10 to 15 min (excitation 320 nm/emission 420 nm). […]

[2] = test system: Aβtotal produced and secreted into the medium of human neuroblastoma SKNBE2 cells; test: Cellular αlisa assay in SKNBE2 cells, Aβtotal; type: cell-based; conditions: SKNBE2 cells expressing hAPP695, 18 hours incubation; for IC50: Homo sapiens, SKNBE2, 18 h, read-out: Cellular αlisa assay in SKNBE2 cells Aβtotal pIC50 (converted)
Experimental: (§5) Cellular αlisa Assay in SKNBE2 Cells In two αlisa assays the levels of Aβtotal and Aβ42 produced and secreted into the medium of human neuroblastoma SKNBE2 cells are quantified. The assay is based on the human neuroblastoma SKNBE2 expressing the wild type Amyloid Precursor Protein (hAPP695). […] Aβtotal and Aβ42 are measured by sandwich α[…] sandwich assay using biotinylated antibody AbN/25 attached to streptavidin coated beads and antibody Ab4G8 or cAb42/26 conjugated acceptor beads for the detection of Aβtotal and Aβ42 respectively. In the presence of Aβtotal or Aβ42, the beads come into close proximity. The excitation of the Donor beads provokes the release of singlet oxygen molecules that triggers a cascade of energy transfer in the Acceptor beads, resulting in light emission. Light emission is measured after 1 hour incubation (excitation at […] and emission at 615 nm). A best-fit curve is fitted by a minimum sum of squares method to the plot of % Controlmin versus compound concentration. […] [formula]

[3] = test system: Aβ42 produced and secreted into the medium of human neuroblastoma SKNBE2 cells; test: Cellular αlisa assay in SKNBE2 cells, Aβ42; type: cell-based; conditions: SKNBE2 cells expressing hAPP695, 18 hours incubation; for IC50: Homo sapiens, SKNBE2, 18 h, read-out: Cellular αlisa assay in SKNBE2 cells Aβ42 pIC50 (converted)
Experimental: as §5

[4] = test system: brain levels of soluble Aβ42; test: In vivo efficacy: brain Aβ42 lowering (ELISA); set-up: species or system mouse; conditions: 30 mpk, sc
Excerpt: as §1, §2, §3, §4
To quantify the amount of Aβtotal and Aβ42 in the soluble fraction of the brain homogenates, Enzyme-Linked-Immunosorbent-Assays were used. […] Following this incubation and subsequent wash steps the ELISA for Aβ42 quantification was finished by addition of Quanta Blu fluorogenic peroxidase substrate according to the manufacturer's instructions (Pierce Corp., Rockford, Ill.). A reading was performed after 10 to 15 min (excitation 320 nm/emission 420 nm).

T1 sequence (P56817 46-501): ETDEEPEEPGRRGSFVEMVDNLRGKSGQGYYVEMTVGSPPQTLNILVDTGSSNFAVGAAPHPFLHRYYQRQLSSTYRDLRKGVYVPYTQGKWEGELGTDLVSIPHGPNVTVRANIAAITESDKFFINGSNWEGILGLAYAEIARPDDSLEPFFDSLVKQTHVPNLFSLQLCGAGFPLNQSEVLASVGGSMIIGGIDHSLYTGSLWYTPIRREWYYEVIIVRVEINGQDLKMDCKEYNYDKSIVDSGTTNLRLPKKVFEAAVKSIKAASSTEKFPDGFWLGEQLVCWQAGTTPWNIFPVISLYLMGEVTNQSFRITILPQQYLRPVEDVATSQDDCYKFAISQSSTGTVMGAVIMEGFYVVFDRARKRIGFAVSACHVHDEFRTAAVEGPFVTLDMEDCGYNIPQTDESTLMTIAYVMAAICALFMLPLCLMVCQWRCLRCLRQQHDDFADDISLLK

| Compound | IC50 [1] [nM] | melting point [°C] | IC50 [2] [nM] | IC50 [3] [nM] | Cellular αlisa assay in SKNBE2 cells Aβtotal pIC50 [2] | Cellular αlisa assay in SKNBE2 cells Aβ42 pIC50 [3] | further results |
| --- | --- | --- | --- | --- | --- | --- | --- |
| COc1cncc(-c2cccc(C3(C)N=C(N)Cn4nccc43)c2)c1 (racemic) [Compound 2, rac-4-[3-(5-methoxypyridin-3-yl)-phenyl]-4-methyl-4,7-dihydropyrazolo[1,5-a]pyrazin-6-amine] | 1660 | 191.8 | 105 | 112 |  |  | Aβtotal (% Ctrl)_Mean (brain levels of total Aβ; 4 h after administration): 116 % Ctrl; Aβ42 (% Ctrl)_Mean ([4]; 4 h after administration): 109 % Ctrl |
| CC1(c2cc(-c3cncnc3)c(F)cc2F)N=C(N)Cn2nccc21 (racemic) [Compound 4, rac-4-(2,4-difluoro-5-pyrimidin-5-yl-phenyl)-4-methyl-4,7-dihydropyrazolo[1,5-a]pyrazin-6-amine] | 8710 | 207 | 1050 | 1070 |  |  |  |
| COc1cncc(-c2cccc(C3(C)N=C(N)Cn4nc(C(F)(F)F)cc43)c2)c1 (racemic) [Compound 21, rac-4-[3-(5-methoxypyridin-3-yl)-phenyl]-4-methyl-2-(trifluoromethyl)-4,7-dihydropyrazolo[1,5-a]pyrazin-6-amine] |  | 89.3 |  |  |  |  |  |
| CC1(c2cc(-c3cncc(Cl)c3)ccc2F)N=C(N)Cn2nc(C(F)(F)F)cc21 (racemic) [Compound 24, rac-4-[5-(5-chloropyridin-3-yl)-2-fluorophenyl]-4-methyl-2-(trifluoromethyl)-4,7-dihydropyrazolo[1,5-a]pyrazin-6-amine] |  | 175.2 |  |  |  |  |  |
| CC1(c2cc(NC(=O)c3ncc(Cl)cc3Cl)ccc2F)N=C(N)Cn2nc(C(F)(F)F)cc21 (racemic) [Compound 27, rac-N-{3-[6-amino-4-methyl-2-(trifluoromethyl)-4,7-dihydropyrazolo[1,5-a]pyrazin-4-yl]-4-fluorophenyl}-3,5-dichloropyridine-2-carboxamide] |  | 198 |  |  |  |  |  |
| CC1(c2cc(NC(=O)c3ccc(Cl)cn3)ccc2F)N=C(N)Cn2nccc21 (single isomer, unassigned) [Compound 10, (S*)—N-[3-(6-Amino-4-methyl-4,7-dihydropyrazolo[1,5-a]pyrazin-4-yl)-4-fluorophenyl]-5-chloropyridine-2-carboxamide] | > 30200 | 199 |  |  | 5.44 | 5.41 |  |
| CC1(c2cc(NC(=O)c3ccc(Cl)cn3)ccc2F)N=C(N)Cn2nccc21 (single isomer, unassigned) [Compound 11, (R*)—N-[3-(6-amino-4-methyl-4,7-dihydropyrazolo[1,5-a]pyrazin-4-yl)-4-fluorophenyl]-5-chloropyridine-2-carboxamide] | 42.7 |  |  |  | 8.37 | 8.36 | Aβtotal (% Ctrl)_Mean (brain levels of total Aβ; 4 h after administration): 80 % Ctrl; Aβ42 (% Ctrl)_Mean ([4]; 4 h after administration): 71 % Ctrl |
| COc1cccc(-c2cccc([C@@]3(C)N=C(N)Cn4nccc43)c2)c1 [Compound 7, (R)-4-(3′-methoxybiphenyl-3-yl)-4-methyl-4,7-dihydropyrazolo[1,5-a]pyrazin-6-amine] |  | 153.8 |  |  |  |  |  |
| CC1(c2cccc(-c3cc(Cl)cc(Cl)c3)c2)N=C(N)Cn2nccc21 (centres unmarked) [Compound 20] |  |  |  |  | 6.37 | 6.33 | Biochemical FRET based assay pIC50 [1]: 6.76; Aβtotal (% Ctrl)_Mean (brain levels of total Aβ; 2 h after administration): 80 % Ctrl; Aβ42 (% Ctrl)_Mean ([4]; 2 h after administration): 86 % Ctrl |
| NC1=N[C@@](c2cc(NC(=O)c3ncc(Cl)cc3F)ccc2F)(C2CC2)c2ccnn2C1 [Compound 33, (R)—N-{3-[6-amino-4-cyclopropyl-4,7-dihydropyrazolo[1,5-a]pyrazin-4-yl]-4-fluorophenyl}-5-chloro-3-fluoropyridine-2-carboxamide] | 309 | 272.6 | 20.9 | 25.7 |  |  |  |
